In PMC12514573, “The bacterial tRNA-modifying enzyme tRNA^Ile lysidine synthetase is genetically conserved but catalytically variable” (The Journal of Biological Chemistry, 2025):

Columns and labels:
Format in all cases: biochemical
[1] = molecular target: T1, GkTilS (Geobacillus kaustophilus, UniProt Q5L3T3); experiment: 3H-lysine incorporation into tRNA, filter scintillation; details: labelled compound; cognate tRNA(Ile2) transcript, 2 mM ATP, 10 mM MgCl2, 10 mM KCl, pH 9.0
T1 construct: gene tilS; recombinant, pET-28a, Rosetta II E. coli; strain source only in supplement (codon-usage genome HTA426)
T1 sequence (Q5L3T3 1-464): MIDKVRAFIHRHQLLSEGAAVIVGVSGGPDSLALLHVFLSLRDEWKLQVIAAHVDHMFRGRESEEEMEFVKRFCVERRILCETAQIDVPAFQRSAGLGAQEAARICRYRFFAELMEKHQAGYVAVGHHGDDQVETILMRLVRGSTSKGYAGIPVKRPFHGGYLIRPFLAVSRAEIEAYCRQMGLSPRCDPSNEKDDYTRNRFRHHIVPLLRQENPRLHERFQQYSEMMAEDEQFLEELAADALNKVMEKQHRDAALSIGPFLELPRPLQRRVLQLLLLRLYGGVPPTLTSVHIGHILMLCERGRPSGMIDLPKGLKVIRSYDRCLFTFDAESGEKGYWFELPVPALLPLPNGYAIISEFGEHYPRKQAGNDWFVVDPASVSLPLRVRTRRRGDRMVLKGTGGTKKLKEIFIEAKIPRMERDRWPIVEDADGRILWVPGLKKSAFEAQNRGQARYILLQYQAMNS

[2] = molecular target: T2, BcTilS (Burkholderia cenocepacia, UniProt B4ED70); experiment: as above; details: labelled compound; cognate tRNA(Ile2) transcript, 2 mM ATP, 10 mM MgCl2, 10 mM KCl, pH 9.0
T2 construct: gene tilS; recombinant, pET-28a, Rosetta II E. coli; strain source only in supplement (codon-usage genome HI2424)
T2 sequence (B4ED70 1-473): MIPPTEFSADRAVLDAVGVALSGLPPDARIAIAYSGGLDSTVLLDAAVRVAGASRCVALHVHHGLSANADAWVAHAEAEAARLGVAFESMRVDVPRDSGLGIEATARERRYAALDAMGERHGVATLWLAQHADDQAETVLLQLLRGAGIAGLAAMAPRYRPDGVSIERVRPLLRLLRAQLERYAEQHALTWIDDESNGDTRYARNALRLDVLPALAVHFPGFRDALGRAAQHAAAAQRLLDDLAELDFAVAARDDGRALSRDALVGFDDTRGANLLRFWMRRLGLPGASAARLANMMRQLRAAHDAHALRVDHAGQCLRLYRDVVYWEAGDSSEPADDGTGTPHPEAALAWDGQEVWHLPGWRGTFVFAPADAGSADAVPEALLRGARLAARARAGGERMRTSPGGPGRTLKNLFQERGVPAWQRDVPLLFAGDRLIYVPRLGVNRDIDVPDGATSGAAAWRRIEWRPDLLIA

[3] = molecular target: T3, HpTilS (Helicobacter pylori, UniProt O25428); experiment: as above; details: labelled compound; cognate tRNA(Ile2) transcript, 2 mM ATP, 10 mM MgCl2, 10 mM KCl, pH 8.5
T3 construct: gene tilS; type II TilS; recombinant, Rosetta II E. coli; strain source only in supplement (codon-usage genome 26695)
T3 sequence (O25428 1-336): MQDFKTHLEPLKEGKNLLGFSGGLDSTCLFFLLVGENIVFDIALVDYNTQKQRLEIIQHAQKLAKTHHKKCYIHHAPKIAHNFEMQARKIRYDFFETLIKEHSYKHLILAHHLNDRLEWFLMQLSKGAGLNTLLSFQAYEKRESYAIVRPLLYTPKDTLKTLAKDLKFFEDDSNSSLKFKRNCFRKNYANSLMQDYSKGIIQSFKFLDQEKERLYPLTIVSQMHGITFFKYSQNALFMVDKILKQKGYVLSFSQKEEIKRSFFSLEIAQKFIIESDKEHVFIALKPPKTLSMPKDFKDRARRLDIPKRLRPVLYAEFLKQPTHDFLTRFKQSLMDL

[4] = molecular target: T4, BfTilS (Bacteroides fragilis, UniProt Q5LFM6); experiment: as above; details: labelled compound; cognate tRNA(Ile2) transcript, 2 mM ATP, 10 mM MgCl2, 10 mM KCl, pH 8.5
T4 construct: gene tilS; recombinant, pET-28a, Rosetta II E. coli; strain source only in supplement (codon-usage genome NCTC9343)
T4 sequence (Q5LFM6 1-435): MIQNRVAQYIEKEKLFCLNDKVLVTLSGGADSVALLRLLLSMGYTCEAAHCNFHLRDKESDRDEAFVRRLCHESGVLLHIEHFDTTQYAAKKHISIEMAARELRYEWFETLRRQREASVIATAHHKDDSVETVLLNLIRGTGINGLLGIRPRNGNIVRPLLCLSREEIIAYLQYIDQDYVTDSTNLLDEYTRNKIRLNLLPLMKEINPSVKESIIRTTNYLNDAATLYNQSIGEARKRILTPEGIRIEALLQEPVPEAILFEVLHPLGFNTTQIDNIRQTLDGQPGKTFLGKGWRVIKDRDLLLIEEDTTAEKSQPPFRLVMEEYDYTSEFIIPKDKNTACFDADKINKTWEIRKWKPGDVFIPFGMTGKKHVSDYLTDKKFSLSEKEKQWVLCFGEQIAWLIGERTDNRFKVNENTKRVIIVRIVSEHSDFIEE

[5] = molecular target: T5, PaTilS (Pseudomonas aeruginosa, UniProt Q9HXZ3); experiment: as above; details: labelled compound; cognate tRNA(Ile2) transcript, 2 mM ATP, 10 mM MgCl2, 10 mM KCl, pH 9.0
T5 construct: gene tilS; recombinant, pET-28a, Rosetta II E. coli; strain source only in supplement (codon-usage genome PAO1)
T5 sequence (Q9HXZ3 1-442): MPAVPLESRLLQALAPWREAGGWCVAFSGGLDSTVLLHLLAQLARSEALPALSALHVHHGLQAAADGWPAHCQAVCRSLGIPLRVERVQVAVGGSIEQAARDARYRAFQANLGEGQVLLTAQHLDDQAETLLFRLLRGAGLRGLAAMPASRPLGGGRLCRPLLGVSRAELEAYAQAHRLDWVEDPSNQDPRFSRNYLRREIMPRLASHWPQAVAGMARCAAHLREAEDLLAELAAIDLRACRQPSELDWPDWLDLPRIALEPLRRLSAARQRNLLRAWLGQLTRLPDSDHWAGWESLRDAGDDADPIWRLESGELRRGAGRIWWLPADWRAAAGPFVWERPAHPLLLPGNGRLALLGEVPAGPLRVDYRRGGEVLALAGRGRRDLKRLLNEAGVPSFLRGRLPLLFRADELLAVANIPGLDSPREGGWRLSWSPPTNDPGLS

[6] = molecular target: T6, EcTilS (Escherichia coli, UniProt P52097); experiment: as above; details: labelled compound; cognate tRNA(Ile2) transcript, 2 mM ATP, 10 mM MgCl2, 10 mM KCl, pH 9.0
T6 construct: gene tilS; recombinant, pET-28a, Rosetta II E. coli; strain source only in supplement (codon-usage genome W3110)
T6 sequence (P52097 1-432): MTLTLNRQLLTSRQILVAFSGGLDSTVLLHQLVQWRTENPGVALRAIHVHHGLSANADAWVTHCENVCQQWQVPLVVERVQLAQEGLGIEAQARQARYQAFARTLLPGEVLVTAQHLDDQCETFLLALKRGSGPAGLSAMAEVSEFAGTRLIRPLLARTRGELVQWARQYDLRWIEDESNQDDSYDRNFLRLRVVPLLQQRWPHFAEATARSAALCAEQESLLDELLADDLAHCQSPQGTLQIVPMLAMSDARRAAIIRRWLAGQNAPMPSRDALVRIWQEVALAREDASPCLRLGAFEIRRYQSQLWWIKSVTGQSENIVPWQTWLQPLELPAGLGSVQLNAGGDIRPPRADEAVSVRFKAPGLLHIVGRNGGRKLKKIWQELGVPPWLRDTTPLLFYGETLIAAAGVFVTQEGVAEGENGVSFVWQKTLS

[7] = molecular target: T7, MsTilS (Mycolicibacterium smegmatis, UniProt A0R594); experiment: as above; details: labelled compound; cognate tRNA(Ile2) transcript, 2 mM ATP, 10 mM MgCl2, 10 mM KCl, pH 8.5
T7 construct: gene tilS; type II TilS, lacks CTD2 naturally; recombinant, Rosetta II E. coli; strain source only in supplement (codon-usage genome MG(2)155)
T7 sequence (A0R594 1-322): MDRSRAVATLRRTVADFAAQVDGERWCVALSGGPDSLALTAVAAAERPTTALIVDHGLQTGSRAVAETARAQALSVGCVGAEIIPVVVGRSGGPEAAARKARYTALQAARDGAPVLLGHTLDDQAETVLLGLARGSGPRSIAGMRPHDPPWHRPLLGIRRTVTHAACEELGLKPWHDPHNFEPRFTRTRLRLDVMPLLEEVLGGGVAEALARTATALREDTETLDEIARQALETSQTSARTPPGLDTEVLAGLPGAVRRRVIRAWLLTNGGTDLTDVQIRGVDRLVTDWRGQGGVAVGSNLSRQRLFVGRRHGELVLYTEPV

[8] = molecular target: T8, GkMetRS (Geobacillus kaustophilus, UniProt Q5L3W2); experiment: tRNA methionylation (aminoacylation); details: cognate tRNA(Met) transcript; assay details not given
T8 construct: gene metG; recombinant, cloned metS gene; details not in main text

[9] = molecular target: T9, BcMetRS (Burkholderia cenocepacia, UniProt A0K9L0); experiment: tRNA methionylation (aminoacylation); details: cognate tRNA(Met) transcript; assay details not given
T9 construct: gene metG; recombinant, cloned metS gene; details not in main text
T9 sequence (A0K9L0 1-718): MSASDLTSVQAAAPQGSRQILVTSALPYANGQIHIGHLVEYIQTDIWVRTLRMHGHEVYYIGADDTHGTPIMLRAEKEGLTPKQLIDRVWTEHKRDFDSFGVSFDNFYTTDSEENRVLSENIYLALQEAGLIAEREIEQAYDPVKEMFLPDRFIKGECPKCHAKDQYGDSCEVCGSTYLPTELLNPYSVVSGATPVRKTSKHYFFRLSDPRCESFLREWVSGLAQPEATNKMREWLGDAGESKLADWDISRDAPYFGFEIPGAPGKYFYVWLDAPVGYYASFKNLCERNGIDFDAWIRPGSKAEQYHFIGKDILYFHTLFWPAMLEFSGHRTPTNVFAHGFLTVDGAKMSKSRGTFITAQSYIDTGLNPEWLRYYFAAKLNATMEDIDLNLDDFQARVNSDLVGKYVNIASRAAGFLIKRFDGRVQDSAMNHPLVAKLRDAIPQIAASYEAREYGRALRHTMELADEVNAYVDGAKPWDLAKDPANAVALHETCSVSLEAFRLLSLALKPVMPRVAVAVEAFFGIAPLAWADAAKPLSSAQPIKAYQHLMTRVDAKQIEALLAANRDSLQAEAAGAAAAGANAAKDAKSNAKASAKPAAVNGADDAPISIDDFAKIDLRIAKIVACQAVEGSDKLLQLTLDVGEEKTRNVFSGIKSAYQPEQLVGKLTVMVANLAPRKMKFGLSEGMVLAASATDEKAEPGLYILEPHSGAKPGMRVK

[10] = molecular target: T10, PaMetRS (Pseudomonas aeruginosa, UniProt Q9HYC7); experiment: tRNA methionylation (aminoacylation); details: cognate tRNA(Met) transcript; assay details not given
T10 construct: gene metG; recombinant, cloned metS gene; details not in main text
T10 sequence (Q9HYC7 1-677): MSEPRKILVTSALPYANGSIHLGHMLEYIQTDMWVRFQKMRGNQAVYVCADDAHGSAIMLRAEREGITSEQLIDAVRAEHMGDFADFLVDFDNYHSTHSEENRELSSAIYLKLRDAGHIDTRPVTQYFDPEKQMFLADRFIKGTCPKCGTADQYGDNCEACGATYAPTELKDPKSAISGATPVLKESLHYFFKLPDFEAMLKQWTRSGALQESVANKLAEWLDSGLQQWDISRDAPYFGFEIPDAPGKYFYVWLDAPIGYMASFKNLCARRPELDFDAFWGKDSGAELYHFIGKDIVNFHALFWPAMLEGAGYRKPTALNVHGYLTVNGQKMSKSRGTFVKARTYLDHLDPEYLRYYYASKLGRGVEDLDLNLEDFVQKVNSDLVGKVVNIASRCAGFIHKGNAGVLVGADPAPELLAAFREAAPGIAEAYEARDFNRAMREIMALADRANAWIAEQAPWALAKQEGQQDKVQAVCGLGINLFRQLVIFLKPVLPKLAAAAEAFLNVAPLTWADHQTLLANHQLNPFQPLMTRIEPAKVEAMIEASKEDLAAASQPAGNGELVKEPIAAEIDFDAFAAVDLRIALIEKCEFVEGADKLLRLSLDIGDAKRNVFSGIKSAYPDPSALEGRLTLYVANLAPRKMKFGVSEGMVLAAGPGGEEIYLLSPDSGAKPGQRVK

T8 sequence (Q5L3W2 1-650): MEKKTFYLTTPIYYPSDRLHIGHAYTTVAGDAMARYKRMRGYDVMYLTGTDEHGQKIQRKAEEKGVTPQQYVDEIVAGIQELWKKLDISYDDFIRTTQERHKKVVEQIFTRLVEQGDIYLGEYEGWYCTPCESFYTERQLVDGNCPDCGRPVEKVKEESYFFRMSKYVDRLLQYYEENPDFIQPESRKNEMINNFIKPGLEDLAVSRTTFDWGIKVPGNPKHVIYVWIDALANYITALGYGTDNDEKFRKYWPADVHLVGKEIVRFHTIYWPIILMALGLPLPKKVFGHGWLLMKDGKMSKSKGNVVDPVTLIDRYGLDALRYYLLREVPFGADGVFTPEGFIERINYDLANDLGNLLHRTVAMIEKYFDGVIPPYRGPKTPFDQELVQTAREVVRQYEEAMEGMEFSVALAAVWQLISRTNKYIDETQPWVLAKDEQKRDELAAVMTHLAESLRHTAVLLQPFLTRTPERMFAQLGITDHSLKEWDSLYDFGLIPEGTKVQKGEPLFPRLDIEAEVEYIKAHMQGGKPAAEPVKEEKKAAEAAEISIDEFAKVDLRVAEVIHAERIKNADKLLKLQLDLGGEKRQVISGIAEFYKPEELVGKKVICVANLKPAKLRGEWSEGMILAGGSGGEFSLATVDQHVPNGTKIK

Structure (SMILES) | 3H-lysine incorporation into tRNA, filter scintillation [1] | 3H-lysine incorporation into tRNA, filter scintillation [2] | 3H-lysine incorporation into tRNA, filter scintillation [3] | 3H-lysine incorporation into tRNA, filter scintillation [4] | 3H-lysine incorporation into tRNA, filter scintillation [5] | 3H-lysine incorporation into tRNA, filter scintillation [6] | 3H-lysine incorporation into tRNA, filter scintillation [7] | tRNA methionylation (aminoacylation) [8] | tRNA methionylation (aminoacylation) [9] | tRNA methionylation (aminoacylation) [10]
NCCCC[C@H](N)C(=O)O [L-lysine] | Filters were counted by liquid scintillation to quantify lysine incorporation into transcript tRNA. | Filters were counted by liquid scintillation to quantify lysine incorporation into transcript tRNA. | Filters were counted by liquid scintillation to quantify lysine incorporation into transcript tRNA. | Filters were counted by liquid scintillation to quantify lysine incorporation into transcript tRNA. | Filters were counted by liquid scintillation to quantify lysine incorporation into transcript tRNA. | Filters were counted by liquid scintillation to quantify lysine incorporation into transcript tRNA. | Filters were counted by liquid scintillation to quantify lysine incorporation into transcript tRNA. |  |  | 
CSCC[C@H](N)C(=O)O [methionine] |  |  |  |  |  |  |  | evaluated the methionylation activity toward cognate tRNA^Met and near-cognate tRNA^Ile2 substrates | evaluated the methionylation activity toward cognate tRNA^Met and near-cognate tRNA^Ile2 substrates | evaluated the methionylation activity toward cognate tRNA^Met and near-cognate tRNA^Ile2 substrates
